The target of experiment [1] is T1, Disintegrin and metalloproteinase domain-containing protein 8 (Homo sapiens) (UniProt P78325).
T1 sequence (whole entry): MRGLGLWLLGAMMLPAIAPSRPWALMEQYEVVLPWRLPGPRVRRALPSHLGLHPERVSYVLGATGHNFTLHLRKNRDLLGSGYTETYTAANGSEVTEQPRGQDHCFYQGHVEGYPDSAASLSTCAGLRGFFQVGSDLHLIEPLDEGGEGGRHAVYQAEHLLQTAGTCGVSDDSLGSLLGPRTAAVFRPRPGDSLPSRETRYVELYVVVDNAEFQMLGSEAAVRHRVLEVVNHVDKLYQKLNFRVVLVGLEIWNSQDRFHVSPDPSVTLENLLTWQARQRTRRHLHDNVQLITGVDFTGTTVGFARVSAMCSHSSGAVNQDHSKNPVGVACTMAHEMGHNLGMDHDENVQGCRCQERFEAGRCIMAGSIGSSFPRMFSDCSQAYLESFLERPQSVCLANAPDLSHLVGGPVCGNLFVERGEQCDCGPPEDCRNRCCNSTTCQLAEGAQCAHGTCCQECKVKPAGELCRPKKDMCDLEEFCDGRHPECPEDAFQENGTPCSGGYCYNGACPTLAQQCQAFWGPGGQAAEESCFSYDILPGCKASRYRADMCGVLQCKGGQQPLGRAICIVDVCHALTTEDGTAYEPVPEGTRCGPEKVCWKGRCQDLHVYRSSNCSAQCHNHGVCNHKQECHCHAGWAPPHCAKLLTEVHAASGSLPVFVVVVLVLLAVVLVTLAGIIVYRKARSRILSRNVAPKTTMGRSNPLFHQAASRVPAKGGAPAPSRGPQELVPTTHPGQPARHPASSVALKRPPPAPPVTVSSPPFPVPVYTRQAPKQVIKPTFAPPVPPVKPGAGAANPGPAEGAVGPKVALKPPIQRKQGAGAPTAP
Briefly: Inhibition of ADAM8 in human MDA-MB-231 cells assessed as inhibition of ERK1/2 phosphorylation at Thr202/Tyr204 residues at 10 uM incubated for 48 hrs by western blot analysis. Type of experiment: cell-based. Background: In western blotting, separated proteins are transferred to a membrane and probed.

Experiment [2] concerns the target T1, Disintegrin and metalloproteinase domain-containing protein 8 (Homo sapiens). The experiment can be described thus: Inhibition of ADAM8 in human MDA-MB-231 cells assessed as inhibition of Akt phosphorylation at Ser473 residue at 10 uM incubated for 48 hrs by western blot analysis. Type of experiment: cell-based.

Molecules are shown by their SMILES. The source made the active and inactive calls. The rule behind the calls is not given here.

With `O=C(NCCC[C@@H](NS(=O)(=O)c1ccc(OCc2cc(Br)cc(Br)c2)cc1)C(=O)NO)c1cccc(C(=O)NCCC[C@@H](NS(=O)(=O)c2ccc(OCc3cc(Br)cc(Br)c3)cc2)C(=O)NO)c1`, the inhibition entry in experiment [1] and in experiment [2] was “inactive” each time.

Consider `O=C(CCCNC(=O)c1cccc(C(=O)NCCCC(=O)NCCC[C@@H](NS(=O)(=O)c2ccc(OCc3cc(Br)cc(Br)c3)cc2)C(=O)NO)c1)NCCC[C@@H](NS(=O)(=O)c1ccc(OCc2cc(Br)cc(Br)c2)cc1)C(=O)NO`, for which the inhibition entry in experiment [1] and in experiment [2] was “inactive” each time.

In the case of `O=C(NCCC[C@@H](NS(=O)(=O)c1ccc(OCc2cc(Br)cc(Br)c2)cc1)C(=O)NO)NCCC[C@@H](NS(=O)(=O)c1ccc(OCc2cc(Br)cc(Br)c2)cc1)C(=O)NO`, the inhibition entry in experiment [1] and in experiment [2] was “inactive” in each case.

Values taken from ChEMBL document CHEMBL5226358, “Discovery of Dimeric Arylsulfonamides as Potent ADAM8 Inhibitors” (ACS Med Chem Lett, 2021).
